Experimental data reported in article PMC4464647, “ANO1 (TMEM16A) in pancreatic ductal adenocarcinoma (PDAC)” (Pflugers Archiv, 2014).
d = 2'-deoxy (DNA)

Columns and labels:
CaCC current = biological target: T1, CaCC current (Homo sapiens, UniProt Q5XXA6); assay: Whole-cell patch-clamp of CaCC currents in PDAC cells, 1 μM Ca2+ in pipette solution; assay type: cell-based; details: for decrease of CaCC currents: siRNA 50 nM, compared to scrambled siRNA (MOCK)
T1 construct: Whole-cell patch-clamp recordings identified large Ca^2+ and voltage-dependent Cl^− currents in PDAC cells; endogenous in cells; host or cells: Capan-1, AsPC-1, BxPC-3 (human PDAC cell lines, ATCC)
T1 sequence (Q5XXA6 1-986): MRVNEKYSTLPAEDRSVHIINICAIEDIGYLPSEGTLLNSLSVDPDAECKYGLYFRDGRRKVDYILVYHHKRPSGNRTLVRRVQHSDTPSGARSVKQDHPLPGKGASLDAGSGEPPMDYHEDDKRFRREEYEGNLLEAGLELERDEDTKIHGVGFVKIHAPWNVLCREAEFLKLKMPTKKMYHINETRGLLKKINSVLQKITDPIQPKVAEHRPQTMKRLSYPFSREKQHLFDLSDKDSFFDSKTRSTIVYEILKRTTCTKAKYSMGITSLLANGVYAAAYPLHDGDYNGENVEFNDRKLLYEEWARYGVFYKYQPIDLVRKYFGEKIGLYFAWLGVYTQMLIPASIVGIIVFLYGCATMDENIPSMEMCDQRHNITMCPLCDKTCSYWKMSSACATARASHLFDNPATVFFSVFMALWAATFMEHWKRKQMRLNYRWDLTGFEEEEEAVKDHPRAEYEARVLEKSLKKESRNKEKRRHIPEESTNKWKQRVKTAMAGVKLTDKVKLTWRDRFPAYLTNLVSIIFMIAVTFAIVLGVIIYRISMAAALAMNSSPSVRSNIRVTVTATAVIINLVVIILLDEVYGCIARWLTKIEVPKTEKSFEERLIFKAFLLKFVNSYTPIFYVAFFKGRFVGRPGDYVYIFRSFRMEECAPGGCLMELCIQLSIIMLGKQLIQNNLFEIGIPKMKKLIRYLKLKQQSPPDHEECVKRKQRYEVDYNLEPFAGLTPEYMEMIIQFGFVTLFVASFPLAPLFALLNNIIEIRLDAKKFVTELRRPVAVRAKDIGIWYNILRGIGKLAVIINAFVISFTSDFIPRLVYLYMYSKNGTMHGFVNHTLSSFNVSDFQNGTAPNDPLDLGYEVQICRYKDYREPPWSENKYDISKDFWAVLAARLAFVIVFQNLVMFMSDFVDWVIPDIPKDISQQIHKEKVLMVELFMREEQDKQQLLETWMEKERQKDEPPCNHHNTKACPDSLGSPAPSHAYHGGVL
Protocol: Cells were grown on poly-L-lysine coated coverslips. For knockdown experiments, cells were transfected with siRNA targeting ANO1 or scrambled siRNA shortly after complete attachment of the cells (approx. 3 h after plating). Currents were measured 36–48 h after transfection. Whole-cell patch-clamp recordings were performed using the Axopatch 200B amplifier interfaced to a Digidata 1440A controlled by pClamp10 software (Molecular Devices, USA). Analogue signals were acquired at 2.5 kHz and filtered at 1 kHz. […] An agar bridge made of 3 % agar and 97 % of the bath solution containing NMDG-Cl (below) was used as reference electrode. Current activations were recorded from an output holding potential, V out = 0 mV with ramp protocols spanning from −100 to 100 mV over 1 s and run continuously with 15-s intervals. Step protocols between −100 to 120 mV were generated from V out = 0 mV with step increments of 20 mV and lengths of 2 s. Liquid junction potentials (V lj) were estimated as described in [10] with membrane potentials calculated as, V m = V out − V lj. Series resistance was compensated by 60–70 %. All recordings were performed at room temperature (18–23 °C). Instantaneous currents were measured 1 ms after each voltage step. The data was fitted using the Goldman–Hodgkin–Katz (GHK) current equation.1 ICl^−=Pz^2F^2V/RTCo−Cie^zFV/RT/1−e^zFV/RT
One micromolar free Ca^2+ pipette solution include the following (in mM): 100 CsAsp, 40 CsCl, 4.34 CaCl2, 4 Na2ATP, 1 MgCl2, 5 EGTA, 10 HEPES, pH 7.2, osmolality 295 mosmol/kg or 0 μM free Ca^2+ solution containing no CaCl2 and 10 mM EGTA. Standard bath solution include the following (in mM): 150 NaCl, 1.5 CaCl2, 1 MgCl2, 10 glucose, 10 HEPES, pH 7.4, osmolality 315 mosmol/kg (adjusted with D-mannitol). Isotonic solution include the following (in mM): 85 NaCl, 2 MgCl2, 1.5 CaCl2, 10 glucose, 10 HEPES, pH 7.4, of osmolality 315 mosmol/kg (adjusted with D-mannitol). The hypotonic solution with osmolality of 210 mosmol/kg was obtained by omitting D-mannitol from the isotonic solution. For experiments testing efficiency of an inhibitor, NaCl was replaced by N-methyl-D-glucamine chloride (NMDG-Cl) after seal formation. All osmolalities were measured in a Wescor Vapro model 5520 osmometer (Wescor Inc., USA) calibrated by the manufacturer’s Optimol standard solutions.
Whole-cell patch-clamp recordings with 1 μM Ca^2+ in pipette solution. a Representative current traces measured in Capan-1 cells upon exposure to different inhibitors. b Quantification of CaCC currents at +67 mV recorded with inhibitors compared to currents in presence of DMSO; currents of siANO1 cells were compared to those of MOCK transfected cells. c Steady-state I–V relationships of cells transfected with either scrambled siRNA (MOCK) or siRNA targeting ANO1. d Densitometric quantification of Western blot analysis of siRNA knockdown. β-Actin was used as a loading control. (n) = number of individual experiments

BxPC-3 cells = assay: BrdU incorporation cell proliferation assay; assay type: cell-based, human; details: BxPC-3, inhibitor 20 μM, 24 h
Protocol: To assess cell proliferation and apoptosis, cells were plated in duplicates on a 96-well plate and incubated in 100 μl of the cell line appropriate media described above. Cells were transfected with siRNA soon after complete attachment (approx. 3 h after seeding). Cells were treated with vehicle, 20 μM gemcitabine, 20 μM T16Ainh-A01, or 10 μM free NS3728 (see below) after culture in a humidified 37 °C and 5 % CO2 incubator overnight. BrdU incorporation was measured using Cell Proliferation ELISA, BrdU (chemiluminescent) (Roche Diagnostics A/S, Denmark) following the manufacturer’s instructions. Caspases 3, 6, and 7 activation was evaluated using Homogeneous Caspases Assay (fluorimetric) (Roche Diagnostics A/S, Denmark).
Fig. 7 VRAC, but not ANO1, regulates cellular proliferation. a Summary of BrdU incorporation in HPDE, Capan-1, AsPC-1, and BxPC-3 cells after various treatments as indicated. Cells were transfected shortly after complete attachment (approx. 3 h) and BrdU incorporation was assessed 36 h after transfection. To investigate effect of inhibitors, cells were incubated for 24 h with respective inhibitor. Values shown are relative to appropriate control. Data shown represents mean ± s.e.m. of n = 4–6 individual experiments. **p ≤ 0.01 and ***p ≤ 0.001 when compared with control

Row | Molecule | decrease of CaCC currents (CaCC current; AsPC-1 cells) [%] | decrease of CaCC currents (CaCC current; BxPC-3 cells) [%] | decrease of CaCC currents (CaCC current; Capan-1 cells) [%] | inhibition at 20 µM (CaCC current; ASPC1, AsPC-1 cells, inhibitor 20 μM, at +67 mV, vs DMSO) [%] | inhibition of CaCC current (CaCC current; BxPC-3 cells, inhibitor 20 μM, at +67 mV, vs DMSO) | inhibition at 20 µM (CaCC current; Capan-1 cells, inhibitor 20 μM, at +67 mV, vs DMSO) [%] | proliferation (BrdU incorporation) (BxPC-3 cells)
1 | siRNA targeting ANO1: Predesigned siRNA oligo from Sigma-Aldrich, 5′-CCUUCAACGUCAGUGACUU[dT][dT]-3′, 5′-AAGUCACUGACGUUGAAGG[dT][dT]-3′ (RNA, 3' dTdT, backbone not given here) | 89 ± 51 | 84 ± 23 | 88 ± 42 |  |  |  | 
2 | CCc1c(C)nc(SCC(=O)Nc2nc(-c3ccc(OC)cc3)cs2)[nH]c1=O [T16Ainh-A01, 2-[(5-Ethyl-1,6-dihydro-4-methyl-6-oxo-2-pyrimidinyl)thio]-N-[4-(4-methoxyphenyl)-2-thiazolyl]acetamide] |  |  |  | 29 ± 2 | ineffective | 43 ± 8 | slight, but non-significant decrease of proliferation
3 | CC(C)(C)C1CCc2c(sc(NC(=O)c3ccco3)c2C(=O)O)C1 (centres unmarked) [CaCCinh-A01, 6-(1,1-dimethylethyl)-2-[(2-furanylcarbonyl)amino]-4,5,6,7-tetrahydrobenzo[b]thiophene-3-carboxylic acid] |  |  |  |  |  |  | larger effect
